# In patent publication US20100209542A1, “Methods For Treating Withdrawal From Addictive Compounds” (priority 2008, published 2010):
# Columns and labels:
# [1] = tested on: opioid receptors; settings: guinea pig ileum, compared with morphine; cited from earlier work
# [2] = tested on: mice; settings: cited from earlier work
# [3] = tested on: withdrawal symptoms; test: compound followed by naloxone administration (control values); format: in vivo, mice
# Description: (§1) In this experiment mice were chronically administered either morphine using an increasing dose paradigm starting at 20 mg/kg and ending at 100 mg/kg (i.p.) or a saline vehicle control for six days. […] Morphine withdrawal symptoms were initiated by the injection of naloxone (10 mg/kg; i.p.). Kratom extract and mitragyine reduced naloxone-precipitated morphine withdrawal symptoms in a similar manner as methadone.
# [4] = tested on: morphine withdrawal symptoms; test: naloxone-precipitated morphine withdrawal symptoms after replacement with compound; format: in vivo, mice; settings: for Jumping Frequency / Last Day % Weight Control / Locomotor Activity / Paw Tremor Frequency / Teeth Chattering Frequency / Wet Dog Shakes Frequency: + 10 mg/kg naloxone i.p.
# Description: as §1
# [5] = animal studies; cited from earlier work
# [6] = biological target: T1, Dopamine D2 (Homo sapiens, UniProt P14416); test: high throughput radioligand binding screen, Dopamine D2
# T1 construct: Novascreen Biosciences Corp
# T1 sequence (P14416 whole entry): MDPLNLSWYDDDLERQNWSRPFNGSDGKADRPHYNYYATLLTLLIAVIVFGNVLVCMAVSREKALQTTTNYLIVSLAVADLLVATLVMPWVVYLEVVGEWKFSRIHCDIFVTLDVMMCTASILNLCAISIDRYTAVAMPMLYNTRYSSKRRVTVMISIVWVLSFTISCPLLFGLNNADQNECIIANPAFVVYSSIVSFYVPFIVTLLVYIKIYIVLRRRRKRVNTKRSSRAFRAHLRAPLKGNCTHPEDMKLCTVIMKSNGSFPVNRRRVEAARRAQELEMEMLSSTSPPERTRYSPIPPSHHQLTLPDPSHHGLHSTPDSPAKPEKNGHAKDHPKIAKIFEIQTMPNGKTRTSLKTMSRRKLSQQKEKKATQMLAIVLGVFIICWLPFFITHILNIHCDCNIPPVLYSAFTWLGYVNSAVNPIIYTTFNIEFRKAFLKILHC
# [7] = biological target: T2, delta-opioid receptor (Cavia porcellus, UniProt A0A286XTF2); settings: guinea pig brain membranes; cited from earlier work
# T2 construct: determined using guinea pig brain membranes; from tissue; host or cells: guinea pig brain membranes
# T2 sequence (A0A286XTF2 1-366): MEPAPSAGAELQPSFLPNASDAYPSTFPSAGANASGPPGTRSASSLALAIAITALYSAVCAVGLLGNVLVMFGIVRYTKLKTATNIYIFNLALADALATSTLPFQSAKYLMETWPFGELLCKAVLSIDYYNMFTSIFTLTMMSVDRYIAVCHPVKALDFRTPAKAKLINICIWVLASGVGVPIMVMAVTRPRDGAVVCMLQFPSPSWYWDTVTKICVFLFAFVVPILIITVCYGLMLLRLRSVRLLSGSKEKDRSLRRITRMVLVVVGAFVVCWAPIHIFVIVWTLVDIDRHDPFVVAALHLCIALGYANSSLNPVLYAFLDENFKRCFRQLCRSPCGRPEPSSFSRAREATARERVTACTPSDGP
# [8] = biological target: T3, Serotonin, 5HT2C (Homo sapiens, UniProt P28335); test: high throughput radioligand binding screen, Serotonin 5HT2C
# T3 construct: Novascreen Biosciences Corp
# T3 sequence (P28335 33-458): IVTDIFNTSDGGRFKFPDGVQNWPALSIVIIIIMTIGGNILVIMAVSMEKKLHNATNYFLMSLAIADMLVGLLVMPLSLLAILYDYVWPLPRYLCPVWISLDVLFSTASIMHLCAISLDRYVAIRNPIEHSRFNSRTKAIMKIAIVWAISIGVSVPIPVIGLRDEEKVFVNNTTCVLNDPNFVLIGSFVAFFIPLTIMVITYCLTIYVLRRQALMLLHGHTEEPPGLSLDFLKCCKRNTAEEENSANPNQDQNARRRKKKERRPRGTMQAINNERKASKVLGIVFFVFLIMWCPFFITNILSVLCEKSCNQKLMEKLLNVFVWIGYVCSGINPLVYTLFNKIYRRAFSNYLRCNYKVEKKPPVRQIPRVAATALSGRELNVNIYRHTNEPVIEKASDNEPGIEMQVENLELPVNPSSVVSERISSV
# [9] = mitragynine sample stability in validation of the detection method; settings: short-term (4 h at room temperature), freeze-thaw (3 cycles), post-processing (16 h at 12° C.); any concentration tested
# From the text: The coefficient of variation and relative error values at the three concentrations were obtained in the intra- and inter-day assays. See, FIG. 3.
# [10] = tested on: respiratory depression; settings: rat, even at doses of 800 mg/kg, intraperitoneal; cited from earlier work
# [11] = biological target: T4, Adenosine A2A (Homo sapiens, UniProt P29274); test: high throughput radioligand binding screen, Adenosine A2A
# T4 construct: Novascreen Biosciences Corp
# T4 sequence (P29274 whole entry): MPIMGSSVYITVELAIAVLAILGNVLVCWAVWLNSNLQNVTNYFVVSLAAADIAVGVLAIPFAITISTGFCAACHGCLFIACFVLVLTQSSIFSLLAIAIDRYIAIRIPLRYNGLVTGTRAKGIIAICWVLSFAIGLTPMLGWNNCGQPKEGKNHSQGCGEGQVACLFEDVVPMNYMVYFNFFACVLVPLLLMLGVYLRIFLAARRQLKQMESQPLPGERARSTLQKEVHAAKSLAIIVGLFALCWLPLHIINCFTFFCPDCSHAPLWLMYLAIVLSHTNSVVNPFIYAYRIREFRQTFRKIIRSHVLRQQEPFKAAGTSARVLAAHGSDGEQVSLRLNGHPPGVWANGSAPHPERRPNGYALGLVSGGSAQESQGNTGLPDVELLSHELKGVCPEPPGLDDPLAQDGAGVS
# [12] = tested on: Adrenergic (Alpha 2); test: high throughput radioligand binding screen, Adrenergic (Alpha 2)
# [13] = biological target: T5, Serotonin, 5HT7 (Homo sapiens, UniProt P34969); test: high throughput radioligand binding screen, Serotonin 5HT7
# T5 construct: Novascreen Biosciences Corp
# T5 sequence (P34969 whole entry): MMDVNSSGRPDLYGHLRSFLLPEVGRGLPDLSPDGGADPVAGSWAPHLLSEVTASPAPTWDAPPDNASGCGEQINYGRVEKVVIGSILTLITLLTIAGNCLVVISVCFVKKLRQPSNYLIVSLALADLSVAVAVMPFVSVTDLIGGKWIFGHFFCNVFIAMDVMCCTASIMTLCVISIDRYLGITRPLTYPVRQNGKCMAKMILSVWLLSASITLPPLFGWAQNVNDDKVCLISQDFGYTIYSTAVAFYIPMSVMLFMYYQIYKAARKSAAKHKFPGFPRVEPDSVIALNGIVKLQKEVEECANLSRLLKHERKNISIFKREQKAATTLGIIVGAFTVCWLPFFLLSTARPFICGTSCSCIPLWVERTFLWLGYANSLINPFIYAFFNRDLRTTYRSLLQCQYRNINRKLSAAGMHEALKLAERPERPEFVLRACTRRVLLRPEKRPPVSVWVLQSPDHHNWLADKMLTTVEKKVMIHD
# [14] = no morphine, compound 23 mg/kg p.o. + 10 mg/kg naloxone i.p.
# [15] = no morphine, compound 100 mg/kg p.o. + 10 mg/kg naloxone i.p.
# [16] = morphine 20-100 mg/kg i.p., then compound 23 mg/kg p.o.
# [17] = morphine 20-100 mg/kg i.p., then compound 100 mg/kg p.o.
# [18] = morphine i.p. + 10 mg/kg naloxone i.p.
# [19] = morphine 20-100 mg/kg i.p. control, no replacement compound
# [20] = naloxone i.p. group, no morphine
smiles,measurement,setting,value
CC[C@@H]1CN2CC[C@@]3(O)C(=Nc4cccc(OC)c43)[C@@H]2C[C@@H]1/C(=C\OC)C(=O)OC [7-hydroxymitragynine],opioid agonist potency,[1],higher potency than morphine
same,antinociceptive activity,[2],potent antinociceptive activity
"CCC(=O)C(CC(C)N(C)C)(c1ccccc1)c1ccccc1 (centres unmarked) [Methadone, methadone]",Jumping Frequency,[3]; [14],0.00 ± 0.00
same,Last Day % Weight Control,[3]; [14],96.64 ± 1.046 %
same,Locomotor Activity,[3]; [14],2595 ± 288.4
same,Paw Tremor Frequency,[3]; [14],6.400 ± 1.462
same,Teeth Chattering Frequency,[3]; [14],0.00 ± 0.00
same,Wet Dog Shakes Frequency,[3]; [14],2.000 ± 0.5164
same,Jumping Frequency,[3]; [15],0.00 ± 0.00
same,Last Day % Weight Control,[3]; [15],98.30 ± 0.6976 %
same,Paw Tremor Frequency,[3]; [15],5.000 ± 1.549
same,Teeth Chattering Frequency,[3]; [15],0.00 ± 0.00
same,Wet Dog Shakes Frequency,[3]; [15],1.900 ± 0.5859
same,Jumping Frequency,[4]; [16],0.00 ± 0.00
same,Last Day % Weight Control,[4]; [16],100.1 ± 0.8121 %
same,Locomotor Activity,[4]; [16],1866 ± 225.9
same,Paw Tremor Frequency,[4]; [16],110.7 ± 8.809
same,Teeth Chattering Frequency,[4]; [16],81.20 ± 8.704
same,Wet Dog Shakes Frequency,[4]; [16],5.600 ± 0.9684
same,Jumping Frequency,[4]; [17],1.111 ± 0.7536
same,Last Day % Weight Control,[4]; [17],100.1 ± 1.205 %
same,Locomotor Activity,[4]; [17],2512 ± 131.5
same,Paw Tremor Frequency,[4]; [17],8.444 ± 1.692
same,Teeth Chattering Frequency,[4]; [17],0.00 ± 0.00
same,Wet Dog Shakes Frequency,[4]; [17],0.6667 ± 0.3333
"CN1CC[C@]23c4c5ccc(O)c4O[C@H]2[C@@H](O)C=C[C@H]3[C@H]1C5 [Morphine, morphine]",Jumping Frequency,[3]; [18],21.6 ± 4.378
same,Last Day % Weight Control,[3]; [18],89.64 ± 0.6012 %
same,Locomotor Activity,[3]; [18],1870 ± 114.2
same,Paw Tremor Frequency,[3]; [18],156.2 ± 7.124
same,Teeth Chattering Frequency,[3]; [18],76.10 ± 6.572
same,Wet Dog Shakes Frequency,[3]; [18],9.433 ± 1.334
same,Jumping Frequency,[4]; [19],21.6 ± 4.378
same,Last Day % Weight Control,[4]; [19],89.64 ± 0.6012 %
same,Locomotor Activity,[4]; [19],1870 ± 114.2
same,Paw Tremor Frequency,[4]; [19],156.2 ± 7.124
same,Teeth Chattering Frequency,[4]; [19],76.10 ± 6.572
same,Wet Dog Shakes Frequency,[4]; [19],9.433 ± 1.334
"C=CCN1CC[C@]23c4c5ccc(O)c4O[C@H]2C(=O)CC[C@@]3(O)[C@H]1C5 [Naloxone, naloxone]",Jumping Frequency,[3]; [20],1.800 ± 0.9978
same,Last Day % Weight Control,[3]; [20],99.94 ± 1.225 %
same,Locomotor Activity,[3]; [20],3291 ± 145.3
same,Paw Tremor Frequency,[3]; [20],3.800 ± 0.9978
same,Teeth Chattering Frequency,[3]; [20],0.00 ± 0.00
same,Wet Dog Shakes Frequency,[3]; [20],0.6000 ± 0.3399
CC[C@@H]1CN2CC[C@]3(Nc4cccc(OC)c4C3=O)[C@@H]2C[C@@H]1/C(=C\OC)C(=O)OC [mitragynine pseudoindoxyl],opioid agonist potency,[1],higher potency than morphine
CC[C@@H]1CN2CCc3c([nH]c4cccc(OC)c34)[C@@H]2C[C@@H]1/C(=C\OC)C(=O)OC [mitragynine],analgesic and antitussive properties,[5],comparable to codeine
same,opioid withdrawal syndrome,[5],suppressed
same,respiratory depression compared with codeine,[5],much less respiratory depression
same,Percentage inhibition of radioligand binding,[6],Dopamine D2: 54.22
same,pKi,[7],7.22±0.21
same,Percentage inhibition of radioligand binding,[8],"Serotonin, 5HT2C: 58.77"
same,"sample stability, variation",[9],≤ 15%
same,respiratory depression,[10],failed to identify respiratory depression
same,Jumping Frequency,[3]; [14],0.00 ± 0.00
same,Last Day % Weight Control,[3]; [14],98.85 ± 0.8938 %
same,Locomotor Activity,[3]; [14],3010 ± 108.1
same,Paw Tremor Frequency,[3]; [14],1.800 ± 0.6464
same,Teeth Chattering Frequency,[3]; [14],0.00 ± 0.00
same,Wet Dog Shakes Frequency,[3]; [14],0.00 ± 0.00
same,Percentage inhibition of radioligand binding,[11],Adenosine A2A: 65.66
same,Percentage inhibition of radioligand binding,[12],Adrenergic (Alpha 2): 61.92
same,naloxone-precipitated morphine withdrawal symptoms,"[4]; mice, p.o. for six days after morphine, in a similar manner as methadone",reduced
same,Jumping Frequency,[4]; [16],0.00 ± 0.00
same,Last Day % Weight Control,[4]; [16],101.3 ± 0.8619 %
same,Locomotor Activity,[4]; [16],2485 ± 119.1
same,Paw Tremor Frequency,[4]; [16],3.200 ± 0.7424
same,Teeth Chattering Frequency,[4]; [16],0.00 ± 0.00
same,Wet Dog Shakes Frequency,[4]; [16],0.6000 ± 0.2667
same,Percentage inhibition of radioligand binding,[13],"Serotonin, 5HT7: 64.41"
